Measurements as given in publication PMC9299485, “4‐Iodopyrimidine Labeling Reveals Nuclear Translocation and Nuclease Activity for Both MIF and MIF2” (Chemistry (Weinheim an Der Bergstrasse, Germany), 2021).
Like-named read-outs stand apart in the source and are kept apart here.

What was measured:
MIF2 [1] = target: T1, MIF2 (Homo sapiens, UniProt P30046); assay: MIF2 tautomerase activity inhibition (PP substrate, UV 300 nm); assay type: biochemical
T1 construct: made in house; host or cells: E. coli BL21(DE3), pET20b(+)
Experimental: 2. Preparation of recombinant MIF and MIF2. […]
Purity of obtained protein was tested by SDS-PAGE and Coomassie staining. […]
(§1) The detailed procedure to produce recombinant human MIF2 was reported in our previous publications.[7] Gene sequences of the human MIF2 gene (Invitrogen) was adapted to bacterial expression. After subcloning into a pET20b(+) expression vector, IPTG-induced expression was performed in E.coli strain BL21(DE3). MIF2 proteins were overproduced overnight and harvested cells were resuspended and sonicated. The soluble fraction was puriﬁed using a Q sepharose column (GE Healthcare) with a gradient of NaCl. The fractions containing MIF2 were brought to 1.7 M ammonium sulfate and loaded on a phenyl sepharose column (GE Healthcare) and eluted with a gradient to 0 M ammonium sulfate in a 20 mM sodium phosphate buffer, pH 8.0. Finally, the proteins were purified by size exclusion chromatography on a Superdex75 column (GE Healthcare) in 20 mM sodium phosphate buffer, pH 8.0, with an elution volume characteristic for trimeric MIF2. The collected protein was concentrated using a VivaSpin centrifugation column with a molecular weight cut off at 5000 D a (Sartorius Stedim Biotech GmbH). Purified proteins were aliquoted, snap frozen in liquid nitrogen, and stored at –80 °C. Purity of obtained protein was tested by SDS-PAGE and coomassie staining. The concentration of protein was determined using the Bradford a ssay.
(§2) 3.1 MIF and MIF2 Inhibition
(§3) The protocol for measuring inhibition of MIF or MIF2 tautomerase enzyme activity was described previously.[5] 500 nM MIF solution (180 µL) or 100 nM MIF2 solution (180 µL) in boric acid buffer ([…], pH 6.2) was mixed with 20 mM EDTA solution (10 µL) in demineralized water. A solution of the desired compound dissolved in DMSO (10 µL) or blank DMSO (10 µL) was added. The resulting mixture was preincubated at room temperature for 10 minutes.
(§4) Subsequently, 50 µL of this mixture was mixed with 50 µL of a 1 mM 4-HPP solution for MIF or 1 mM PP solution for MIF2 in ammonium acetate buffer (50 mM, pH 6.0). Thereafter, MIF or MIF2 tautomerase activity was monitored by measuring the increase of UV absorbance at 306 nm for MIF or 300 nm for MIF2 over time. The MIF or MIF2 tautomerase activity of the mixture with blank DMSO dilution was set to 100% enzyme activity. Noncatalyzed conversion of the substrate in the mixture without MIF or MIF2 was set to 0%. The data acquired from the first 3 minutes of the measurement were used to calculate the initial conversion speed. All experiments were performed in triplicate and data processing was done using the program […]
(§5) Table S1. IC50 values (10 min) and inactivation parameters of synthesized compounds.
(§6) (1 picture or pasted object on this page, not shown here)

MIF [2] = target: T2, MIF (Homo sapiens, UniProt P14174); assay: Labeling of recombinant MIF by probe 8, SDS-PAGE in-gel fluorescence, competition; assay type: binding; conditions: pre-treatment of MIF with competitor, Figure 2C, D
T2 construct: His tag (C); made in house; host or cells: Escherichia coli BL21 (DE3), pET-20b(+)
T2 sequence (P14174 2-115 limits assumed): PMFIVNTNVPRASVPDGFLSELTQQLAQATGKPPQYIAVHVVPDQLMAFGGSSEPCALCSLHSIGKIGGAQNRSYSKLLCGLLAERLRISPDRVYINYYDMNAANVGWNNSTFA
Experimental: (§7) 4. Purified protein labeling and Mass spectra
(§8) 4.1 MIF or MIF2 labeling with probe 8
(§9) MIF or MIF2 were diluted to desired concentration with PBS buffer and incubated with probe
(§10) 8 at corresponding concentration and for corresponding time. Subsequently, the mixture was
(§11) denatured (99 °C, 10 min). Labeled protein and free probe were separated by 12% Bis-Tris gel
(§12) (Bio-Rad Laboratories, #4561084). Probe 8 labeled protein was visualized using in-gel
(§13) 4.2 MIF or MIF2 labeling and mass spectra
(§14) Figure S2. Mass spectra of labeled MIF2. (A) Native MIF2 and probe 8 (B) or probe 9 (C)
as §6

MIF2 [3] = target: T1, MIF2; assay: Labeling of recombinant MIF2 by probe 8, SDS-PAGE in-gel fluorescence, competition; assay type: binding; conditions: Figure 2G
Experimental: as §7, §8, §9, §10, §11, §12, §13, §14, §6

MIF [4] = target: T2, MIF; assay: MIF tautomerase activity inhibition (4-HPP substrate, UV 306 nm); assay type: biochemical; conditions: for potency relative to corresponding chloro-substituted intermediate: iodo compound vs chloro intermediate
Experimental: 2. Preparation of recombinant MIF and MIF2.
The detailed procedure to produce C-terminal His-tagged recombinant human MIF was reported in our previous publications.[1,4,5] rhMIF was expressed through transforming a pET-20b(+) plasmid containing the target gene into Escherichia coli BL21 (DE3) according to literature procedures.[6] Overexpression was performed and cells were collected and sonicated.
The obtained supernatant was applied to a medium pressure chromatography system (Biologic Duoflow) equipped with a His trap HP (5 mL) column with detection at 280 nm for the eluent.
The column was washed with a binding buffer containing 50 mM Tris and 10% glycerol at pH 7.4 and eluted with elution buffer containing 500 mM imidazole, 50 mM Tris, 10% glycerol at pH 7.4. The pure fractions (as judged by SDS-PAGE) were pooled and subjected to a PD-10 column (GE healthcare) that was equilibrated with PBS buffer at pH 7.4 to remove the high concentration of imidazole. The collected MIF solution was divided into 50 µL aliquots and stored at –80 °C. Purity of obtained protein was tested by SDS-PAGE and Coomassie staining.
The concentration of protein was determined using the Bradford assay.
as §1, §2, §3, §4, §5, §6

MIF [5] = target: T2, MIF; assay: Kitz-Wilson inactivation kinetics on MIF tautomerase; assay type: biochemical; conditions: for KI (inactivation) / kinact: Kitz-Wilson analysis, ±SD, n=3; for KI (inactivation): read-out: KI MIF (inhibition constant); for kinact: read-out: kinact MIF (rate of enzyme inactivation) (converted)
Experimental: (§15) In order to derive the kinetic parameters for inactivation of MIFand MIF2, we employed the approach described by Kitz and Wilson. Briefly, four different concentrations of the inhibitor with four different pre-incubation times were selected. The assay conditions are described above with the difference in incubation time.
(§16) For the data analysis, the pre-incubation times for the different concentration of the inhibitor versus the remaining enzyme activity were plotted, so from the linear regression the slope of each concentration of the probe was obtained ( Table S3). Then the 1/slope versus 1/[inhibitor] were plotted (Figure 4) and from the linear regression line ki was derived from the 1/y -intercept and derived from the slope times the ki as described by Kitz and Wilson.
For example, for the probe 8 the equation is: Y = 7,476*X + 5,069
So, the kinact and the KI values are: kinact =1/5,069 =0.20 min-1
(also on this page, place not known: -1 0 1 2 3 0 50 100 log [FM011] (µM) DDT (%) -1 0 1 2 3 0 50 100 log [ZP308] (µM) DDT activity (%) 0.0 0.5 1.0 1.5 2.0 0 50 100 log [ZP307] (µM) DDT activity (%) 1.4 1.6 1.8 2.0 2.2 0 50 100 log [FM031] (µM) DDT activity (%) pre -incubation cond itions pre -incubation activity o f (Table 1/y-intercept) […]
(§17) Table S4. Kinetics studies results.
(§18) Time-dependent inhibition Kitz and Wilson curve […]
ln (MIF tautomerase activity %)
Time-dependent inhibition on MIF Y = 7,476*X + 5,069
Time-dependent inhibition on MIF Y = 12,07*X + 4,234 […]
ln (MIF2 tautomerase activity %)
(§19) Time-dependent inhibition on MIF2 Y = 299,5*X + 11,14 […]

MIF2 [6] = target: T1, MIF2; assay: Kitz-Wilson inactivation kinetics on MIF2 tautomerase; assay type: biochemical; conditions: Kitz-Wilson analysis, ±SD, n=3
Experimental: as §15, §16
For example, for the probe 8 the equation is: Y = 7,476*X + 5,069 […]
as §17, §18
ln (MIF tautomerase activity %) […]
as §19

[7] = Table 1, tautomerase activity, mean±SD, n=3, read-out: IC50 MIF2
[8] = Table 1, tautomerase activity, mean±SD, n=3, read-out: IC50 MIF
[9] = Table S1, 10 min, read-out: IC50 (µM) MIF2
[10] = Table S1, 10 min, read-out: IC50 (µM) MIF
[11] = Table 2, 10 min pre-incubation, ±SD, n=3, read-out: IC50 MIF2
[12] = Table 2, 10 min pre-incubation, ±SD, n=3, read-out: IC50 MIF

Row | SMILES | IC50 (MIF2 [1]; [7]) | IC50 (MIF [4]; [8]) | IC50 (MIF2 [1]; [9]) | IC50 (MIF [4]; [10]) | further results
1 | O=C(O)c1ccc(-c2cc(I)ncn2)cc1 [Compound 2] | 125 ± 15 µM | 5 ± 0.46 µM | – | – | labeling of MIF by probe 8 after prior treatment with inhibitor (MIF [2]): abolished; labeling of MIF2 by probe 8 after pre-incubation with inhibitor (MIF2 [3]): outcompeted; potency relative to corresponding chloro-substituted intermediate (MIF [4]; Table S1): at least two times more potent
2 | O=C(O)c1ccc(-c2cc(Cl)nc(N3CCOCC3)n2)cc1 [Compound 4a] | – | – | > 250 µM | 174 µM | –
3 | Cc1c(I)ncnc1-c1ccc(C(=O)O)cc1 [Compound 6, 4-(6-Iodo-5-methylpyrimidin-4-yl)benzoic acid] | > 250 µM | 56 ± 12 µM | – | – | potency relative to corresponding chloro-substituted intermediate (MIF [4]; Table S1): at least two times more potent
4 | O=[N+]([O-])c1ccc(-c2cc(I)ncn2)cc1 [Compound 7, 4-Iodo-6-(4-nitrophenyl)pyrimidine] | > 250 µM | 0.63 ± 0.06 µM | – | – | IC50 (MIF2 [1]; [11]): > 250 µM; KI (inactivation) (MIF [5]): 3.9 ± 0.7 µM; kinact (MIF [5]): 0.00467 s⁻¹; IC50 (MIF [4]; [12]): 0.63 ± 0.06 µM; selectivity for MIF over MIF2 (MIF [4]; from tautomerase IC50 values): > 400 fold; potency relative to corresponding chloro-substituted intermediate (MIF [4]; Table S1): at least two times more potent
5 | O=C(O)c1ccc(-c2cc(Cl)nc(-c3ccccc3)n2)cc1 [Compound 5a, 4-(6-Chloro-2-phenylpyrimidin-4-yl)benzoic acid] | – | – | 85 µM | 36 µM | –
6 | O=C(O)c1ccc(-c2cc(I)nc(-c3ccccc3)n2)cc1 [Compound 5, 4-(6-Iodo-2-phenylpyrimidin-4-yl)benzoic acid] | > 250 µM | 59 ± 6.3 µM | – | – | –
7 | O=C(O)c1ccc(-c2cc(I)nc(N3CCOCC3)n2)cc1 [Compound 4] | > 250 µM | 15 ± 7.5 µM | – | – | potency relative to corresponding chloro-substituted intermediate (MIF [4]; Table S1): at least two times more potent
8 | CC(C)c1nc(I)cc(-c2ccc(C(=O)O)cc2)n1 [Compound 11, 4-(6-Iodo-2-isopropylpyrimidin-4-yl)benzoic acid] | – | – | > 250 µM | 112 µM | –
9 | O=C(CCCC[C@@H]1SC[C@@H]2NC(=O)N[C@@H]21)NCCNC(=O)c1ccc(-c2cc(I)ncn2)cc1 [Compound 9] | – | – | – | – | improvement of potency for MIF2 inhibition compared to parental inhibitor 2 (MIF2 [1]): 2–6 factor; IC50 (MIF2 [1]; [11]): 78 ± 7.7 µM; KI on MIF relative to IC50 (MIF [5]; KI higher than IC50): about 10 times; KI (inactivation) (MIF [5]): 2.8 ± 0.67 µM; kinact (MIF [5]): 0.004 s⁻¹; kinact MIF2 (rate of enzyme inactivation) (MIF2 [6]): 0.061 ± 0.010 min⁻¹; KI (inactivation) (MIF2 [6]; read-out: KI MIF2 (inhibition constant)): 85 ± 8.6 µM; kinact (MIF2 [6]; read-out: kinact MIF2 (rate of enzyme inactivation)): 0.001 to 0.0015 s⁻¹; IC50 (MIF [4]; [12]): 0.24 ± 0.05 µM; IC50 (MIF [4]; approximate, read-out: IC50 on MIF): ~0.2 µM
10 | Nc1ccc(-c2cc(Cl)ncn2)cc1 [Compound 8a, 4-(6-Chloropyrimidin-4-yl)aniline] | – | – | 83 µM | 1.7 µM | –
11 | Cc1c(Cl)ncnc1-c1ccc(C(=O)O)cc1 [Compound 6a, 4-(6-Chloro-5-methylpyrimidin-4-yl)benzoic acid] | – | – | > 250 µM | > 250 µM | –
12 | Cc1nc(I)cc(-c2ccc(C(=O)O)cc2)n1 [Compound 3] | > 250 µM | > 250 µM | – | – | –
13 | Ic1cc(-c2ccccc2)ncn1 [Compound 1, 4‐iodo‐6‐phenylpyrimidine, reference compound] | > 250 µM | 4 ± 0.98 µM | – | – | potency relative to corresponding chloro-substituted intermediate (MIF [4]; Table S1): at least two times more potent
14 | Clc1cc(-c2ccccc2)ncn1 [Compound 1a] | – | – | > 250 µM | 16 µM | –
15 | Cc1nc(Cl)cc(-c2ccc(C(=O)O)cc2)n1 [Compound 3a] | – | – | 103 µM | 95 µM | IC50 (MIF2 [1]; Table S3 dose-inhibition curves (DDT activity), read-out: IC50 MIF2 tautomerase): 107 ± 6 µM; IC50 (MIF [4]; Table S2 dose-inhibition curves, read-out: IC50 MIF tautomerase): 72 ± 17 µM
16 | CC(C)c1nc(Cl)cc(-c2ccc(C(=O)O)cc2)n1 [Compound 11a, 4-(6-Chloro-2-isopropylpyrimidin-4-yl)benzoic acid] | – | – | > 250 µM | > 250 µM | –
17 | O=[N+]([O-])c1ccc(-c2cc(Cl)ncn2)cc1 [Compound 7a, 4-Chloro-6-(4-nitrophenyl)pyrimidine] | – | – | > 250 µM | 1.4 µM | –
18 | O=C(O)c1ccc(-c2cc(Cl)ncn2)cc1 [Compound 2a] | – | – | > 250 µM | 17 µM | –
